Experimental data taken from patent US11427548B2 (Arvinas Operations, Inc., priority 2015, dated 2022).
Where two headings read alike, the source gives them in different places. Each block holds one molecule with its values, some of them ahead of it.

Target: T1, Androgen Receptor (Homo sapiens, UniProt P10275)
T1 construct: endogenous in cells; host or cells: VCaP cells
T1 sequence (P10275 1-920): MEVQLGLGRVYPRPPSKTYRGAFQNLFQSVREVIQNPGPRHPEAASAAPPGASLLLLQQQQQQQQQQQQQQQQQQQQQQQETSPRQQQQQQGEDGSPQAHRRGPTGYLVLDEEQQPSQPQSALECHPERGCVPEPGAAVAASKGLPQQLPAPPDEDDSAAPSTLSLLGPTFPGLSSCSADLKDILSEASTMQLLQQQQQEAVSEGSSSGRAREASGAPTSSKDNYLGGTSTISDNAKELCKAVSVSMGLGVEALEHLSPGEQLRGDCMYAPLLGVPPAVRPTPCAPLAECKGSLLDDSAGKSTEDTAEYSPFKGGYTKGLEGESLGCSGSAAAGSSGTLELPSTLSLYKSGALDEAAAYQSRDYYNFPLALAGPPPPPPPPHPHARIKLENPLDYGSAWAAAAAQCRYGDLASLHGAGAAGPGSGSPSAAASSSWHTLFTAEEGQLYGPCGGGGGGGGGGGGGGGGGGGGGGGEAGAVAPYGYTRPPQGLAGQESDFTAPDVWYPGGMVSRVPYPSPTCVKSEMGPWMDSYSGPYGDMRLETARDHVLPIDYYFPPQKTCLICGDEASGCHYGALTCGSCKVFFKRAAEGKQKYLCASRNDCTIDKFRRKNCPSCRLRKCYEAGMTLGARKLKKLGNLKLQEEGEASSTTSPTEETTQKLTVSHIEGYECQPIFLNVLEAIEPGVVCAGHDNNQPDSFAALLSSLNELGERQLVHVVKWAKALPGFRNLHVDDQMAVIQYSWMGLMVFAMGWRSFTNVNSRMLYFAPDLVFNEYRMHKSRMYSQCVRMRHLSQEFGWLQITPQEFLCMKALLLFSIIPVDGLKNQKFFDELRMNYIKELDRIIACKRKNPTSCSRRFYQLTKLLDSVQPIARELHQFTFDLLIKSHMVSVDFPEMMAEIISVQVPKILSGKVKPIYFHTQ
Assay: Androgen Receptor ELISA assay (PathScan AR ELISA) in VCaP cells: AR degradation, Dmax and DC50
Assay type: cell-based
Method in brief: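 VCaP cells, 30,000/well, grown ≥3 days in phenol red-free RPMI with 5% charcoal-stripped FBS; compound added in 0.1% DMSO with 0.1 nM R1881, 7 half-log doses, 24 h. Lysate AR quantified by PathScan sandwich ELISA, HRP/TMB read at 450 nm, giving DC50 and Dmax.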

[1] = read-out: VCaP DC50; concentration that caused 50% Androgen Receptor degradation, VCaP cells (Table 32)
[2] = VCaP cells; Table 36; read-out: VCaP DC50
[3] = VCaP, VCaP cells; Table 36; read-out: VCaP Dmax (%)
[4] = VCaP cells; Table 35; read-out: VCaP DC50
[5] = VCaP, VCaP cells; Table 35; read-out: VCaP Dmax (%)

Compound: Cc1ncoc1-c1ccc(CNC(=O)[C@@H]2C[C@@H](O)CN2C(=O)[C@@H](NC(=O)COCCCCOc2ccc(-c3ccc(N4C(=S)N(c5ccc(C#N)c(Cl)c5)C(=O)C4(C)C)c(F)c3)cc2)C(C)(C)C)cc1 [Example 100, (2S,4R)-1-[(2S)-2-{2-[4-(4-{4-[3-(3-chloro-4-cyanophenyl)-5,5-dimethyl-4-oxo-2-sulfanylideneimidazolidin-1-yl]-3-fluorophenyl}phen-oxy)butoxy]acetamido}-3,3-dimethylbutanoyl]-4-hydroxy-N-{[4-(4-methyl-1,3-oxazol-5-yl)phenyl]methyl}pyrrolidine-2-carboxamide]
Dmax (VCaP, read-out: VCaP Dmax (%)): > 71% | DC50 [1]: < 50 nM

Compound: Cc1ncsc1-c1ccc([C@H](C)NC(=O)[C@@H]2C[C@@H](O)CN2C(=O)[C@@H](c2ncc(CCCN3CCN(c4ccc(C(=O)NC5C(C)(C)C(Oc6ccc(C#N)c(Cl)c6)C5(C)C)cn4)CC3)n2C)C(C)C)cc1 (stereo partly drawn) [Example 701, N-((1r,3r)-3-(3-chloro-4-cyanophenoxy)-2,2,4,4-tetramethylcyclobutyl)-6-(4-(3-(2-((R)-1-((2S,4R)-4-hydroxy-2-(((S)-1-(4-(4-methylthiazol-5-yl)phenyl)ethyl)carbam-oyl)pyrrolidin-1-yl)-3-methyl-1-oxobutan-2-yl)-1-methyl-1H-imidazol-5-yl)propyl)piperazin-1-y)nicotinamide]
VCaP Dmax (%) (VCaP cells; Table 36): + (Dmax ≤ 25%) | DC50 [2]: > 501 nM

Compound: Cc1ncsc1-c1ccc([C@H](C)NC(=O)[C@@H]2C[C@@H](O)CN2C(=O)[C@H](c2ncc(CCCN3CCN(c4ccc(C(=O)NC5C(C)(C)C(Oc6ccc(C#N)c(Cl)c6)C5(C)C)cn4)CC3)n2C)C(C)C)cc1 (stereo partly drawn) [Example 702, N-((1r,3r)-3-(3-chloro-4-cyanophenoxy)-2,2,4,4-tetramethylcyclobutyl)-6-(4-(3-(2-((S)-1-((2S,4R)-4-hydroxy-2-(((S)-1-(4-(4-methylthiazol-5-yl)phenyl)ethyl)carbam-oyl)pyrrolidin-1-yl)-3-methyl-1-oxobutan-2-yl)-1-methyl-1H-imidazol-5-yl)propyl)piperazin-1-yl)nicotinamide]
VCaP Dmax (%) (VCaP cells; Table 36): + (Dmax ≤ 25%) | DC50 [2]: > 501 nM

Compound: Cc1ncsc1-c1ccc(CNC(=O)[C@@H]2C[C@@H](O)CN2C(=O)[C@@H](NC(=O)COCCCCOc2ccc(-c3ccc(N4C(=S)N(c5ccc(C#N)c(C(F)(F)F)c5)C(=O)C4(C)C)cc3)cc2O)C(C)(C)C)cc1 [Example 408]
Dmax (VCaP, read-out: VCaP Dmax (%)): 51 to 70% | DC50 (read-out: VCaP DC50; VCaP cells; Table 34): < 50 nM

DC50 (VCaP cells; Table 34; read-out: VCaP DC50): < 50 nM | Dmax (VCaP, VCaP cells; Table 34; read-out: VCaP Dmax (%)): > 71%
Compound: Cc1ncoc1-c1ccc([C@H](C)NC(=O)[C@@H]2C[C@@H](O)CN2C(=O)[C@@H](NC(=O)COCCCCNc2ccc(C(=O)N[C@H]3C(C)(C)[C@H](Oc4ccc(C#N)c(Cl)c4)C3(C)C)cc2)C(C)(C)C)cc1 [Example 411]

DC50 [2]: > 501 nM | Dmax [3]: < 25%
Compound: CC(C)[C@@H](C(=O)N1C[C@H](O)C[C@H]1C(=O)NCc1ccc(Cl)cc1N1CCN(CCCc2ccc(C(=O)N[C@H]3C(C)(C)[C@H](Oc4ccc(C#N)c(Cl)c4)C3(C)C)cc2)CC1)N1Cc2ccccc2C1=O [Example 754, (2S,4R)-N-(4-chloro-2-(4-(3-(4-(((1r,3r)-3-(3-chloro-4-cyanophenoxy)-2,2,4,4-tetramethylcyclobutyl)carbamoyl)phenyl)propyl)piperazin-1-yl)benzyl)-4-hydroxy-1-((S)-3-methyl-2-(1-oxoisoindolin-2-yl)butanoyl)pyrrolidine-2-carboxamide]

DC50 [2]: > 501 nM | Dmax [3]: < 25%
Compound: Cc1ncsc1-c1ccc(C(C)NC(=O)[C@@H]2C[C@@H](O)CN2C(=O)[C@@H](N)[C@@H](C)OCCCN(C)CCc2ccc(C(=O)N[C@H]3C(C)(C)[C@H](Oc4ccc(C#N)c(Cl)c4)C3(C)C)cc2)cc1 (stereo partly drawn) [Example 730, (2S,4R)-1-(O-(3-((4-(((1r,3r)-3-(3-chloro-4-cyanophenoxy)-2,2,4,4-tetramethylcyclobutyl)carbamoyl)phenethyl)(meth-yl)amino)propyl)-L-threonyl)-4-hydroxy-N-((S)-1-(4-(4-methylthiazol-5-yl)phenyl)ethyl)pyrrolidine-2-carboxamide]

DC50 [4]: > 501 nM | Dmax [5]: 26 to 50%
Compound: CC(C)[C@H](NC(=O)COCCCCCNc1ccc(C(=O)N[C@H]2C(C)(C)[C@H](Oc3ccc(C#N)c(Cl)c3)C2(C)C)cc1)C(=O)N1C[C@H](O)C[C@H]1C(=O)NCc1ccc(C#N)cc1 [Example 520]

DC50 [2]: 51 to 500 nM | Dmax [3]: 26 to 50%
Compound: Cc1ncsc1-c1ccc([C@H](C)NC(=O)[C@@H]2C[C@@H](O)CN2C(=O)[C@@H](NC(=O)CCCCC(CCCc2ccc(C(=O)N[C@H]3C(C)(C)[C@H](Oc4ccc(C#N)c(Cl)c4)C3(C)C)nc2)N2CCN(C)CC2)C(C)(C)C)cc1 (stereo partly drawn) [Example 687, N-((1R,3R)-3-(3-chloro-4-cyanophenoxy)-2,2,4,4-tetramethylcyclobutyl)-5-(9-(((S)-1-((2S,4R)-4-hydroxy-2-(((S)-1-(4-(4-methylthiazol-5-yl)phenyl)ethyl)carbam-oyl)pyrrolidin-1-yl)-3,3-dimethyl-1-oxobutan-2-yl)amino)-4-(4-methylpiperazin-1-yl)-9-oxononyl)picolinamide]

Compound: CC(C)(C)[C@H](NC(=O)COCCCCOc1ccc(-c2ccc(N3C(=S)N(c4ccc(C#N)c(Cl)c4)C(=O)C3(C)C)c(F)c2)cc1)C(=O)N1C[C@H](O)C[C@H]1C(=O)NCc1ccc(-c2cnco2)cc1 [Example 106, (2S,4R)-1-[(2S)-2-{2-[4-(4-{4-[3-(3-chloro-4-cyanophenyl)-5,5-dimethyl-4-oxo-2-sulfanylideneimidazolidin-1-yl]-3-fluorophenyl}phen-oxy)butoxy]acetamido}-3,3-dimethylbutanoyl]-4-hydroxy-N-{[4-(1,3-oxazol-5-yl)phenyl]methyl}pyrrolidine-2-carboxamide]
Dmax (VCaP, read-out: VCaP Dmax (%)): > 71% | DC50 [1]: < 50 nM

DC50 [2]: < 50 nM | Dmax [3]: > 71%
Compound: Cc1ncsc1-c1ccc(CNC(=O)[C@@H]2C[C@@H](O)CN2C(=O)[C@H](C(C)C)N2Cc3ccccc3C2=O)c(OCCN2CCN(c3ccc(C(=O)N[C@H]4C(C)(C)[C@H](Oc5ccc(C#N)c(Cl)c5)C4(C)C)cn3)CC2)c1 [Example 732, N-((1r,3r)-3-(3-chloro-4-cyanophenoxy)-2,2,4,4-tetramethylcyclobutyl)-6-(4-(2-(2-(((2S,4R)-4-hydroxy-1-((S)-3-methyl-2-(1-oxoisoindolin-2-yl)butanoyl)pyrrolidine-2-carboxamido)methyl)-5-(4-methylthiazol-5-yl)phenoxy)ethyl)piper-azin-1-yl)nicotinamide]

DC50 [2]: < 50 nM | Dmax [3]: > 71%
Compound: Cc1ncsc1-c1ccc(CNC(=O)[C@@H]2C[C@@H](O)CN2C(=O)[C@@H](NC(=O)COCCN2CCN(c3ccc(C(=O)N[C@H]4C(C)(C)[C@H](Oc5ccc(C#N)c(Cl)c5)C4(C)C)cn3)CC2)C(C)(C)C)cc1 [Example 638]

DC50 [4]: < 50 nM | Dmax [5]: 26 to 50%
Compound: CC(C)(C)[C@H](NC(=O)COCCCCCNc1ccc(C(=O)N[C@H]2C(C)(C)[C@H](Oc3ccc(C#N)c(Cl)c3)C2(C)C)cc1)C(=O)N1C[C@H](O)C[C@H]1C(=O)NCc1ccc(-n2cnnn2)cc1 [Example 505]

DC50 [4]: < 50 nM | Dmax [5]: > 71%
Compound: CC(C)(C)[C@H](NC(=O)CNc1ccc(C#Cc2ccc(C(=O)N[C@H]3C(C)(C)[C@H](Oc4ccc(C#N)c(Cl)c4)C3(C)C)cc2)cn1)C(=O)N1C[C@H](O)C[C@H]1C(=O)NCc1ccc(C#N)cc1 [Example 498]

Compound: Cc1ncsc1-c1ccc([C@H](C)NC(=O)C2C[C@@H](O)CN2C(=O)[C@@H](NC(=O)COCCN2C3CCC2CN(c2ccc(C(=O)NC4C(C)(C)C(Oc5ccc(C#N)c(Cl)c5)C4(C)C)cn2)C3)C(C)(C)C)cc1 (stereo partly drawn) [Example 787, N-((1r,3r)-3-(3-chloro-4-cyanophenoxy)-2,2,4,4-tetramethylcyclobutyl)-6-(8-(2-(2-(((2S)-1-((4R)-4-hydroxy-2-(((S)-1-(4-(4-methylthiazol-5-yl)phenyl)ethyl)carbamoyl)pyrrolidin-1-yl)-3,3-dimethyl-1-oxobutan-2-yl)amino)-2-oxoethoxy)ethyl)-3,8-diazabicyclo[3.2.1]octan-3-yl)nicotinamide]
VCaP Dmax (%) (VCaP cells; Table 36): ++++ (71% ≤ Dmax) | DC50 [2]: < 50 nM
